# Reference: paper PMC8760490, “Discovery of novel furanylbenzamide inhibitors that target oncogenic tyrosine phosphatase SHP2 in leukemia cells” (The Journal of Biological Chemistry, 2021)
# pIC50: −log10 of the molar value.
# How the values were obtained:
# [1] = test system: U-937 AML cells (G60R oncogenic mutation in SHP2); test: Cell viability (CellTiter-Glo), U-937; type: cell-based; conditions: 3 days, 0.123 to 30 μM
# Description: Oncogenic gain-of-function mutations in SHP2 drive leukemogenesis in a significant number of leukemia patients. However, because of their unique mechanism of action, the existing SHP2 allosteric inhibitors lack activity against the most common SHP2 oncogenic variants. Thus, we tested whether our inhibitors could inhibit the growth of leukemia cells expressing oncogenic SHP2 variants. […] Thus, we tested both SBI-4668 and RMC-4550 on U-937 AML cells, which harbor a G60R oncogenic mutation in SHP2. We treated cells with either SBI-4668 or RMC-4550 at various concentrations, ranging from 0.123 to 30 μM (Fig. 5A). […] We also assessed the effects of SBI-4668 and RMC-4550 on ERK1/2 activation in the SHP2 mutant U-937 cell line. […]
# (§1) Viability of AML and esophageal carcinoma cells was assessed using the ATP-depletion assay CellTiter-Glo (Promega). Cells were harvested at 1 × 10^6/ml to 2 × 10^6 cells/ml with cell numbers determined by trypan blue using the Countess Cell counter (Thermo Scientific) and resuspended in culture media. […] Luminescence was read on a Tecan Spark Multimode Microplate Reader, and data were analyzed using GraphPad Prism software.
# [2] = test system: phospho-ERK1/2 (p-ERK1/2) in MOLM-13 AML cells; test: p-ERK1/2 immunoblot, MOLM-13; type: cell-based; conditions: 3 h; SBI-4668 3, 10, 30 μM; RMC-4550 1 μM
# Procedure: (§2) Because SHP2 activity is critical for ERK activation, we used phospho-ERK1/2 (p-ERK1/2) as a more direct readout of SHP2 inhibitor efficacy. […] This p-ERK rebound in MOLM-13 cells treated with RMC-4550 is reminiscent of previously reported data from human hepatoma Hep3B cells treated with SHP099 ([34]). We also tested the effects of SBI-4668 or RMC-4550 on two patient-derived AML samples (Fig. 4F).
# Cells cultured in RPMI medium were treated as indicated in the legends to the figures. Total protein extracts were prepared in modified radioimmunoprecipitation assay lysis buffer (25 mM Tris–HCl, pH 7.4, 10% glycerol, 0.2% Triton X-100, 150 mM NaCl, 2 mM Na3VO4, and 1 mM EDTA) containing a protease inhibitor cocktail (Roche Applied Science). Equal amounts of protein were separated on 4 to 12% (p-ERK1/2 blots) or 4 to 20% (SHP2 blots) Bis–Tris gels by SDS-PAGE and transferred to nitrocellulose (p-ERK1/2 blots) or 0.2 μm polyvinylidene fluoride (SHP2 blots) membranes. Membranes were blocked in 5% dry milk (Bio-Rad) in Tris-buffered saline–Tween-20 (TBS–T) (0.1% v/v) for 1 h at RT. Protein-bound membranes were incubated with indicated primary antibody overnight at 4 °C. After washing three times with TBS-T, membranes were incubated for 1 h with horseradish peroxidase–conjugated secondary antibody and then visualized by an ECL Prime detection system (GE Healthcare). Immunoblotting experiments were carried out at least three times, and representative images are shown. Densitometric quantitation of immunoblots was performed using Image Studio Lite Software (LI-COR). Changes of phosphorylated ERK1/2 to total ERK1/2 ratios are expressed as percentage of the vehicle-treated controls. The following antibodies were used: Phospho-Erk1/2 Ab (catalog no.: 9101S; Cell Signaling); total Erk1/2 Ab (catalog no.: 9102S; Cell Signaling); SHP2 Ab (catalog no.: A301-544A; lot no.: 1; Bethyl); and GAPDH (14C10) mAb (catalog no.: 2118S; lot no.: 14; Cell Signaling).
# [3] = test system: patient-derived AML cells; test: Viability of patient-derived AML cells; type: cell-based, human; conditions: 10 μM; 2, 4 or 6 days in culture
# Description: as §2
# Patient-derived AML cells were obtained from Carol Burian and Dr James Mason (Scripps MD Anderson Center) under approved Institutional Review Board protocol 13-6180. […] Final peripheral blood mononuclear cells were resuspended in Bambanker serum-free freezing medium (Wako Pure Chemical Industries, Ltd) and stored frozen before cell viability was assessed as described later.
# as §1
# [4] = test system: phospho-ERK1/2 (p-ERK1/2) in U-937 AML cells; test: p-ERK1/2 immunoblot, U-937; type: cell-based; conditions: SBI-4668 1, 3, 10, 30 μM, RMC-4550 1 μM
# Description: Oncogenic gain-of-function mutations in SHP2 drive leukemogenesis in a significant number of leukemia patients. However, because of their unique mechanism of action, the existing SHP2 allosteric inhibitors lack activity against the most common SHP2 oncogenic variants. Thus, we tested whether our inhibitors could inhibit the growth of leukemia cells expressing oncogenic SHP2 variants. […] Thus, we tested both SBI-4668 and RMC-4550 on U-937 AML cells, which harbor a G60R oncogenic mutation in SHP2. We treated cells with either SBI-4668 or RMC-4550 at various concentrations, ranging from 0.123 to 30 μM (Fig. 5A). […] We also assessed the effects of SBI-4668 and RMC-4550 on ERK1/2 activation in the SHP2 mutant U-937 cell line. Similar to the immunoblot experiments described for MOLM-13 cells above, U-937 AML cells were treated with either vehicle control (DMSO), SBI-4668 (1, 3, 10, or 30 μM), or with RMC-4550 (1 μM) for 24 h and processed for p-ERK1/2 immunoblot analysis (Fig. 5B).
# Cells cultured in RPMI medium were treated as indicated in the legends to the figures. […] Densitometric quantitation of immunoblots was performed using Image Studio Lite Software (LI-COR). Changes of phosphorylated ERK1/2 to total ERK1/2 ratios are expressed as percentage of the vehicle-treated controls. […]
# [5] = test system: mutant SHP2 (E76K) in live cells; parameters: method as in PMID 31953320, PMID 32744526; conditions: cellular thermal shift assay; cited from earlier work
compound,measurement,setting,value
"Cc1nc(N2CCC3(CC2)CO[C@@H](C)[C@H]3N)c(CO)nc1-c1cccc(Cl)c1Cl [RMC-4550, reference compound]",pIC50,[1],4.48
same,"p-ERK1/2 levels, MOLM-13, 3 h",[2],highly effective in impeding ERK1/2 activation
same,growth of two patient-derived AML samples,[3],only affected the growth of sample 2
same,"p-ERK1/2 levels, U-937, 24 h",[4],not detectable
same,cellular target engagement with mutant SHP2,[5],greatly decreased cellular target engagement
